From PMC12193579, “Pro-Apoptotic Activity of 1-(4,5,6,7-Tetrabromo-1H-benzimidazol-1-yl)propan-2-one, an Intracellular Inhibitor of PIM-1 Kinase in Acute Lymphoblastic Leukemia and Breast Cancer Cells” (International Journal of Molecular Sciences, 2025)

How the values were obtained:
[1] = test system: PIM-1 kinase in CCRF-CEM cells (Ser112 in BAD); assay: Western blot of phosphorylated BAD (Ser112), marker of PIM kinase activity, CCRF-CEM; assay type: cell-based, human; details: 16 µM, 24 h, untreated cells = 1
Description: (§1) After 24 h of treatment, we assessed site-specific phosphorylation of Ser529 in NF-κB p65 and Ser112 in BAD—a marker of PIM kinase activity—using Western blot analysis (Figure 8). The data for BAD confirmed intracellular inhibition of this kinase by the tested compounds in both cell lines in a dose-dependent manner. A statistically significant decrease in phosphorylated BAD was observed following treatment with 16 µM of compound 1, with relative protein levels reduced to 0.48 and 0.46 in CCRF-CEM and MCF-7 cells, respectively (Figure 8a–c).
(§2) Exponentially growing CCRF-CEM or MCF-7 cells were seeded at a density of 6 × 10^5 cells per 6 cm dish. Compounds were then added, with a final DMSO concentration of 0.5%. Cell lysates were prepared as previously described. The ECL substrate was used for signal detection, and the immunoblots were scanned using a G:BOX Chemi imaging system (Syngene, Cambridge, UK) equipped with GeneSys software, Version 1.4.3.0 (Syngene, Cambridge, UK).
(§3) For densitometric analysis, immunoblots were scanned using the G:BOX Chemi system (Syngene), and the band intensities of phosphorylated and total proteins were quantified with GeneSys software (Syngene, Cambridge, UK). The levels of phosphorylated proteins were normalized to GAPDH, with the value for untreated cells set to 1, and subsequently expressed as a percentage relative to the appropriate control.

MCF-7 cells = assay: cell cycle progression by flow cytometry, MCF-7; assay type: cell-based, human; details: 48 h
Description: Additionally, we observed the prolongation of G2/M in MCF-7 treated with 1 at the highest concentration. […] 1 induced G2/M phase arrest in MCF-7 with the highest effect detected for the 16 µM concentration, manifested as 32% cells in that stage, whereas in the control, the percentage of G2/M cells was 22%.
CCRF-CEM and MCF-7 cells were cultured in 6-well plates and treated with the tested compounds for 48 h. After exposure to the compounds, the cells were collected, washed with cold PBS, and fixed in 70% ethanol at –20 °C for at least 24 h. Subsequently, the cells were washed in PBS and stained according to the procedure previously described by our group. The cellular DNA content was measured by flow cytometry using a BD Accuri C6 Plus flow cytometer (BD Biosciences, San Jose, CA, USA). The resulting DNA histograms were analyzed with BD Accuri C6 Plus software (San Diego, CA, USA) to assess the distribution of cells across different phases of the cell cycle.

PIM-1 kinase = target: T1, PIM-1 kinase (Homo sapiens, UniProt P11309); assay: radiometric P81 filter isotopic kinase assay, PIM-1; assay type: biochemical
T1 construct: made in house
Description: Synthetic peptide […] served as the substrate for CK2, while peptide […] was used as the substrate for PIM-1.
The synthesized compounds were evaluated for their inhibitory activity against human CK2α, the human CK2 holoenzyme, and PIM-1 using the P81 filter-based isotopic assay, as previously described. […] The experimental data were fitted to a dose–response curve using non-linear regression analysis (variable slope) Y = Bottom + (Top − Bottom)/(1 + 10^((LogIC50 − X) × HillSlope) equation in GraphPad Prism (Prism 9, version 9.0.1).

[2] = test system: CK2 in MCF-7 cells (Ser529 in NF-κB p65); assay: Western blot of phosphorylated p65 (Ser529), intracellular CK2 inhibition, MCF-7; assay type: cell-based, human; details: 8 µM, 24 h, untreated cells = 1
Description: as §1, §2, §3

[3] = test system: CK2 in CCRF-CEM cells (Ser529 in NF-κB p65); assay: PhosFlow analysis of NF-κB p65 Ser529 phosphorylation, CCRF-CEM; assay type: cell-based, human; details: 16 µM, 24 h
Description: CCRF-CEM cells were prepared following the BD PhosFlow™ Protocol for Human PBMCs using NF-κB p65 (pS529)-PE (#558423), BD PhosFlow™ Perm Buffer III (#558050), Cytofix Fixation Buffer (#554655), and Stain Buffer FBS (#554656), all obtained from Becton Dickinson. Flow cytometric analysis was performed using a BD Accuri C6 Plus cytometer (Becton Dickinson) according to the manufacturer’s instructions.

CCRF-CEM cells = assay: annexin V/propidium iodide apoptosis, flow cytometry, CCRF-CEM; assay type: cell-based, human; details: 48 h, annexin V binding
Description: The results obtained for CCRF-CEM and MCF-7 are shown in Figure 3 and Figure 4, respectively. […] 1, 79.6% of cells were apoptotic.
CCRF-CEM cells were seeded in 24-well plates at a density of 2 × 10^5 cells/mL. The cells were treated with the tested compounds at concentrations of 8, 16, and 32 µM, followed by incubation for 48 h. After treatment, the cells were harvested and processed according to the previously described protocol. Flow cytometric measurements were conducted within 1 h of cell labeling. Viable, necrotic, early apoptotic, and late apoptotic cells were identified using a BD Accuri C6 Plus flow cytometer and analyzed with BD Accuri C6 Plus software, version 1.0.34.1 (BD Biosciences, San Jose, CA, USA).

[4] = test system: PIM-1 kinase in MCF-7 cells (Ser112 in BAD); assay: Western blot of phosphorylated BAD (Ser112), marker of PIM kinase activity, MCF-7; assay type: cell-based, human; details: 16 µM, 24 h, untreated cells = 1
Description: as §1, §2, §3

[5] = test system: Vero (Cercopithecus aethiops kidney); assay: MTT-based viability assay, Vero; assay type: cell-based; details: Chlorocebus sabaeus, MTT, 48 h, non-cancerous cells, read-out: IC50 [µM] Vero
Description: 3. The cytotoxicity of the newly obtained inhibitors, i.e., 1, 2, and 4 was tested towards four cell lines, i.e., CCRF-CEM (acute lymphoblastic leukemia ALL), MCF-7 (breast carcinoma), MDA-MB-231 (triple negative breast carcinoma), and Vero (Cercopithecus aethiops kidney).
The CCRF-CEM (acute lymphoblastic leukemia, ALL) and MDA-MB-231 (triple-negative breast adenocarcinoma) cell lines were obtained from the European Collection of Authenticated Cell Cultures (ECACC), while the MCF-7 (hormone-dependent breast adenocarcinoma) and Vero (Cercopithecus aethiops kidney) cell lines were purchased from the American Type Culture Collection (ATCC, Manassas, VA, USA). CCRF-CEM cells were maintained in RPMI-1640 medium, whereas MCF-7 and MDA-MB-231 cells were cultured in DMEM (Sigma-Aldrich Chemical Company, St. Louis, MO, USA). Vero cells were cultured in minimum essential medium eagle (MEM; Sigma-Aldrich). All media were supplemented with 10% fetal bovine serum (FBS), 2 mM L-glutamine, and antibiotics (100 U/mL penicillin and 100 µg/mL streptomycin) (Sigma-Aldrich). Cells were grown in 75-cm^2 culture flasks (Googlab Scientific, Rakocin, Poland) in a humidified atmosphere containing 5% CO2 at 37 °C. All experiments were performed using exponentially growing cultures. Stock solutions of the test compounds were prepared in DMSO and stored at –80 °C for up to one month.
Following incubation with the tested compounds, the MTT assay was carried out as previously described. Optical density was measured at 570 nm using a BioTek microplate reader (Winooski, VT, USA). All measurements were performed in at least three independent biological replicates.

T1 sequence (P11309 whole entry): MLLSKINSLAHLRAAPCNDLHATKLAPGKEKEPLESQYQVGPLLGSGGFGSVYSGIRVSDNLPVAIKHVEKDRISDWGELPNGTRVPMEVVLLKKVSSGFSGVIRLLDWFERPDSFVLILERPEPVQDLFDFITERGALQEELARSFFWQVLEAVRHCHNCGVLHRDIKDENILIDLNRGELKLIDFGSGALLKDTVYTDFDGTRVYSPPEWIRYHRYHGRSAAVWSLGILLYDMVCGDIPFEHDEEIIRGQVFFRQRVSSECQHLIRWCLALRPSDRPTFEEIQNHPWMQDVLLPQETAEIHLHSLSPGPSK

IC50 (PIM-1 kinase): 0.52 ± 0.02 µM
remaining activity at 2 µM (PIM-1 kinase; cpd. concentration 2 μM, read-out: PIM-1 Residual Activity [%]): 22.4 ± 0.9%
remaining activity at 5 µM (PIM-1 kinase; cpd. concentration 5 μM, read-out: PIM-1 Residual Activity [%]): 10.3 ± 0.7%
remaining activity at 20 µM (PIM-1 kinase; cpd. concentration 20 μM, read-out: PIM-1 Residual Activity [%]): 2.9 ± 0.2%
Compound: CC(=O)Cn1cnc2c(Br)c(Br)c(Br)c(Br)c21 [compound 1, 1-(4,5,6,7-tetrabromo-1H-benzimidazol-1-yl)propan-2-one]
relative level of phosphorylated BAD (Ser112), CCRF-CEM [1]: 0.48
MCF-7 cells in the S phase (MCF-7 cells; 8 µM, control 17%): 11%
MCF-7 cells in the G2/M phase (MCF-7 cells; 16 µM, control 22%): 32%
relative level of p65-P (Ser529), MCF-7 [2]: 0.84
p65-P-negative CCRF-CEM cells [3]: 29%
apoptotic CCRF-CEM cells (CCRF-CEM cells; 8 µM): 23.5%
apoptotic CCRF-CEM cells (CCRF-CEM cells; 16 µM): 79.6%
apoptotic CCRF-CEM cells (CCRF-CEM cells; 32 µM): ~98%
relative level of phosphorylated BAD (Ser112), MCF-7 [4]: 0.46
IC50 [5]: 20.2 ± 3.59 µM
